Experimental data as given in patent publication US12358885B2, “Substituted n-propylamine fused heterocyclic mescaline derivatives” (Enveric Biosciences Canada Inc., priority 2022, dated 2025).
Where two headings read alike, the source gives them in different places.

How the values were obtained:
[1] = target: T1, 5-HT1A receptor (Homo sapiens, UniProt P08908); test: 5-HT1A receptor radioligand competition assay (SPA, 8-hydroxy-DPAT [3H]); type: binding; settings: 0.5 nM hot 8-hydroxy-DPAT, membranes containing 5-HT1A
T1 construct: purchased Perkin Elmer 6110501400UA
T1 sequence (P08908 1-422): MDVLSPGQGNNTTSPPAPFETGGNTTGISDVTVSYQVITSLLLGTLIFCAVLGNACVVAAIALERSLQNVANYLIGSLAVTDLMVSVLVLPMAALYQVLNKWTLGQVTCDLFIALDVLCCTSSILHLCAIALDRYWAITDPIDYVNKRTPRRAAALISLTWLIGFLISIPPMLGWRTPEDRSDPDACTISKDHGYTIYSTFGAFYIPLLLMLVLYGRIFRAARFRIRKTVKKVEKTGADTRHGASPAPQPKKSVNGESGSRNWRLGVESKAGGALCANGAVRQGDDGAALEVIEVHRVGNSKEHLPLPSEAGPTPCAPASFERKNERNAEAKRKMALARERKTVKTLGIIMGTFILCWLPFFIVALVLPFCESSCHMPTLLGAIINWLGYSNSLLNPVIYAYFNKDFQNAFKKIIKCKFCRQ

[2] = target: T1, 5-HT1A receptor; test: Functional 5-HT1A receptor cAMP assay in CHO-K1/5-HT1A/Gα15 cells; type: cell-based
[3] = target: T2, 5-HT2A receptor (Homo sapiens, UniProt P28223); test: biochemical; type: binding; settings: for inhibition at 10 µM: read-out: HT2A, percent of control-specific binding
T2 construct: host or cells: HEK-293 cells (membrane preparation)
T2 sequence (P28223 whole entry): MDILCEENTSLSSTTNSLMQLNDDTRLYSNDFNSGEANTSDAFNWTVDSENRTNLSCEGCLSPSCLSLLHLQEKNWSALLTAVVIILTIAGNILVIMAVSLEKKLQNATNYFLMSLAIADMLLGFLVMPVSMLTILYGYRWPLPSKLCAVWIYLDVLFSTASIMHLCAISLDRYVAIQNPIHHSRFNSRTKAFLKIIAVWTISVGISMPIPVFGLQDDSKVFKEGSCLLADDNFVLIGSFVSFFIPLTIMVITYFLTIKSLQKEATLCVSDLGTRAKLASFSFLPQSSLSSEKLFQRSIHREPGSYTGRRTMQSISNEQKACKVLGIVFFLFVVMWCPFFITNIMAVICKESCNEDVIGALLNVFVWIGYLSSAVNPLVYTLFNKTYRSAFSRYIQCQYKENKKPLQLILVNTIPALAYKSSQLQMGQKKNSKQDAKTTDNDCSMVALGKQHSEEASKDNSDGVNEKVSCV

[4] = target: T3, D3 receptor (Homo sapiens, UniProt P35462); test: Eurofins Cerep competition binding assay at D3 receptor; settings: 10 μM test ligand, [3H]methylspiperone, recombinant receptor in CHO cells; for inhibition at 10 µM: read-out: D3, percent of control-specific binding
T3 construct: host or cells: CHO cells (membrane preparation)
T3 sequence (P35462 whole entry): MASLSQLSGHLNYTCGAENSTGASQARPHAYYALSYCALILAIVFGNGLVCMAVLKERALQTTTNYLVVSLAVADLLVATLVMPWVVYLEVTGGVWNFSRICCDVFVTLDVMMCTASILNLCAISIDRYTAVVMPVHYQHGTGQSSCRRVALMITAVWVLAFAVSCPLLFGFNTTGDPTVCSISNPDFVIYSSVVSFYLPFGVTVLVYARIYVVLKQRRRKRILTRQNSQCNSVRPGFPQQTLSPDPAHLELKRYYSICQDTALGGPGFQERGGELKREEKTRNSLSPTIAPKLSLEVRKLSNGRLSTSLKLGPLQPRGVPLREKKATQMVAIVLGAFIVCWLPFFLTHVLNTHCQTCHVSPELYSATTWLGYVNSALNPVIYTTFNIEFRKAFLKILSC

[5] = target: T4, alpha2A receptor (Homo sapiens, UniProt P08913); test: Eurofins Cerep competition binding assay at alpha2A receptor; settings: 10 μM test ligand; [3H]RX 821002; recombinant receptor in CHO cells
T4 construct: host or cells: CHO cells (membrane preparation)
T4 sequence (P08913 1-465): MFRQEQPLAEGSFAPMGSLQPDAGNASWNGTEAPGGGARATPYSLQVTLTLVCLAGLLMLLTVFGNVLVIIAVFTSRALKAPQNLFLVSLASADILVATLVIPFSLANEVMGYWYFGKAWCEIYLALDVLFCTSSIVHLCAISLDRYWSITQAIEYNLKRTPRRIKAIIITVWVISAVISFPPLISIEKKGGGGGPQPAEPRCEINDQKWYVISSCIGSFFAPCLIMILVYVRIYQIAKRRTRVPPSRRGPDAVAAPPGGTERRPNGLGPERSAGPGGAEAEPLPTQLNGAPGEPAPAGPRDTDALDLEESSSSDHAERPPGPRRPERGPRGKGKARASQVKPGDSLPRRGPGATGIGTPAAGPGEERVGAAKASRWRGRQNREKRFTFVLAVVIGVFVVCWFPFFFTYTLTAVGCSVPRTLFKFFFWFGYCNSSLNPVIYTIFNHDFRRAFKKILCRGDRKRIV

[6] = target: T5, 5-HT7 receptor (Homo sapiens, UniProt P34969); test: Eurofins Cerep competition binding assay at 5-HT7 receptor; settings: 10 μM test ligand, [3H]LSD, recombinant receptor in HEK-293 cells; for inhibition at 10 µM: read-out: HT7, percent of control-specific binding
T5 construct: host or cells: HEK-293 cells (membrane preparation)
T5 sequence (P34969 whole entry): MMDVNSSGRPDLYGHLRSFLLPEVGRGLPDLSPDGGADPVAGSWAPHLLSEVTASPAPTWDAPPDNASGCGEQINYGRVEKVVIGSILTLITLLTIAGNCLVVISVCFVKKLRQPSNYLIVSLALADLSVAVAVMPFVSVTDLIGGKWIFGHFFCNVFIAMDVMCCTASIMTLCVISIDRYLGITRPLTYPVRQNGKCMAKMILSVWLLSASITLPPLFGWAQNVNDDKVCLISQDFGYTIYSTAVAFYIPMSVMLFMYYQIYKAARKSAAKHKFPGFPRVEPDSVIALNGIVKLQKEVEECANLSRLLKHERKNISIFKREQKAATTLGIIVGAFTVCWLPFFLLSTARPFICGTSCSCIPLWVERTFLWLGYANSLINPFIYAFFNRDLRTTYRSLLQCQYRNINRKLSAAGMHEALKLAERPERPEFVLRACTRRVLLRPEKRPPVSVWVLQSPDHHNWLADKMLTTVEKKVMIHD

[7] = target: T6, 5-HT2B receptor (Homo sapiens, UniProt P41595); test: Eurofins Cerep competition binding assay at 5-HT2B receptor; settings: 10 μM test ligand, [3H]mesulergine, recombinant receptor in CHO cells; for inhibition at 10 µM: read-out: HT2B, percent of control-specific binding
T6 construct: host or cells: CHO cells (membrane preparation)
T6 sequence (P41595 whole entry): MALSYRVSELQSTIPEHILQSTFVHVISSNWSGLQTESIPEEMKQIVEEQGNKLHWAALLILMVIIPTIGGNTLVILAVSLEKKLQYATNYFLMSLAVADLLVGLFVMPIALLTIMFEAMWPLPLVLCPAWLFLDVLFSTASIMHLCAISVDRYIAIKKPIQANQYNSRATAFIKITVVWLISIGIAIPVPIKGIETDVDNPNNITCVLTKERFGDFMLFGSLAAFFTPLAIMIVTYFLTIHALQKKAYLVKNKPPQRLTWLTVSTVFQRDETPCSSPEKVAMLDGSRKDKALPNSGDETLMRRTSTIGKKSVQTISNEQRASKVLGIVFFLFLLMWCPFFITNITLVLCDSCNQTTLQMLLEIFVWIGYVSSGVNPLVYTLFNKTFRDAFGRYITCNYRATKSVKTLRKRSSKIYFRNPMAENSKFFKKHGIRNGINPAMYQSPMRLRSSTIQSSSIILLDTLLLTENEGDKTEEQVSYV

[8] = target: T1, 5-HT1A receptor; test: Eurofins Cerep competition binding assay at 5-HT1A receptor; settings: 10 μM test ligand, [3H]8-OH-DPAT, recombinant receptor in HEK-293 cells; for inhibition at 10 µM: read-out: HT1A, percent of control-specific binding
[9] = target: T7, MT1 receptor (Homo sapiens, UniProt P48039); test: Eurofins Cerep competition binding assay at MT1 receptor; settings: for inhibition at 10 µM: read-out: MT1, percent of control-specific binding
T7 construct: host or cells: CHO cells (membrane preparation)
T7 sequence (P48039 whole entry): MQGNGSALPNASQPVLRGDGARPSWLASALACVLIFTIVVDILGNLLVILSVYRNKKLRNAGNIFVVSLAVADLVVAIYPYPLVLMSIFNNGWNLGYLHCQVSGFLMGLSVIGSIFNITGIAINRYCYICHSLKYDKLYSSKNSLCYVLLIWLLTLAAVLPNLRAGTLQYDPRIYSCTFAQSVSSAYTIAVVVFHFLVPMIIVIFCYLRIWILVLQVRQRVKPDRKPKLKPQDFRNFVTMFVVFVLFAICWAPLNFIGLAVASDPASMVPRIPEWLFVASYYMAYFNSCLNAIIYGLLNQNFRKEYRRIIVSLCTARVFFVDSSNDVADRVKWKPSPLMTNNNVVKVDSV

[10] = target: T8, dopamine transporter (DAT) (Homo sapiens, UniProt Q01959); test: Eurofins Cerep competition binding assay at dopamine transporter; settings: for inhibition at 10 µM: read-out: DAT, percent of control-specific binding
T8 construct: host or cells: CHO cells (membrane preparation)
T8 sequence (Q01959 whole entry): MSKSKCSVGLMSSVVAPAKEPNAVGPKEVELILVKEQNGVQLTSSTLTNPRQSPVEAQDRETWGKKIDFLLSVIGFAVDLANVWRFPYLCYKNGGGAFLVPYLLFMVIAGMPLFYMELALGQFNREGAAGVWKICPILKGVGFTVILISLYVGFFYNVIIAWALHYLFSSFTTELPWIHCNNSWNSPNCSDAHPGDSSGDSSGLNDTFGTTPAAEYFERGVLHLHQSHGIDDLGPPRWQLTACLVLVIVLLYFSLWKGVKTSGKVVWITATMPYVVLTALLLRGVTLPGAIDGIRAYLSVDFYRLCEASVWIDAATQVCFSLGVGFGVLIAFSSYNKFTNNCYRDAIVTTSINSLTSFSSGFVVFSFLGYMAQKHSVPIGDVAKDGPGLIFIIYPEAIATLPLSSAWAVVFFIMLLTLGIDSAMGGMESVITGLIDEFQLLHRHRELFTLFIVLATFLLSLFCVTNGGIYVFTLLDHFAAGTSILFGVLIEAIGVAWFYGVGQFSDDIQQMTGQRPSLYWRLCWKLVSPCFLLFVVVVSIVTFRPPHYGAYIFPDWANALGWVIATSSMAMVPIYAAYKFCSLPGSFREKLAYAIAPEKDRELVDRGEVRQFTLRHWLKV

[11] = target: T9, norepinephrine transporter (NET) (Homo sapiens, UniProt P23975); test: Eurofins Cerep competition binding assay at norepinephrine transporter; settings: for inhibition at 10 µM: read-out: NET, percent of control-specific binding
T9 construct: host or cells: CHO cells (membrane preparation)
T9 sequence (P23975 whole entry): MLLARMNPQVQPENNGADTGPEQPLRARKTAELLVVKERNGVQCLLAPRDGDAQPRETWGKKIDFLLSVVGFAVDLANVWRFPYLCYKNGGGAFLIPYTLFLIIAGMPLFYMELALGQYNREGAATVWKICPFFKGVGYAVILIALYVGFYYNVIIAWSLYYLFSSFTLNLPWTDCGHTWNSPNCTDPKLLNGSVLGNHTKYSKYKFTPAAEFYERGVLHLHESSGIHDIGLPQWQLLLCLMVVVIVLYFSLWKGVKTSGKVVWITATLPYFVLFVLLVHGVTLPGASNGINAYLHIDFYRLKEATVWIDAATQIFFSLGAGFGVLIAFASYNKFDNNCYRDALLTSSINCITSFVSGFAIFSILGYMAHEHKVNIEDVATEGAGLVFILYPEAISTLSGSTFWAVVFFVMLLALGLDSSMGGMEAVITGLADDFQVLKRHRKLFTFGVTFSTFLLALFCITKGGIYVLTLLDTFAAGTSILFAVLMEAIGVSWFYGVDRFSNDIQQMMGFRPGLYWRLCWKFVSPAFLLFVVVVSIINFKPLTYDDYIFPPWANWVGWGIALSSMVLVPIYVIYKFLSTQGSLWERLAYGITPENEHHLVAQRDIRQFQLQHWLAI

[12] = target: T10, serotonin transporter (SERT) (Homo sapiens, UniProt P31645); test: biochemical; type: binding; settings: for inhibition at 10 µM: read-out: SERT, percent of control-specific binding
T10 construct: host or cells: CHO cells (membrane preparation)
T10 sequence (P31645 whole entry): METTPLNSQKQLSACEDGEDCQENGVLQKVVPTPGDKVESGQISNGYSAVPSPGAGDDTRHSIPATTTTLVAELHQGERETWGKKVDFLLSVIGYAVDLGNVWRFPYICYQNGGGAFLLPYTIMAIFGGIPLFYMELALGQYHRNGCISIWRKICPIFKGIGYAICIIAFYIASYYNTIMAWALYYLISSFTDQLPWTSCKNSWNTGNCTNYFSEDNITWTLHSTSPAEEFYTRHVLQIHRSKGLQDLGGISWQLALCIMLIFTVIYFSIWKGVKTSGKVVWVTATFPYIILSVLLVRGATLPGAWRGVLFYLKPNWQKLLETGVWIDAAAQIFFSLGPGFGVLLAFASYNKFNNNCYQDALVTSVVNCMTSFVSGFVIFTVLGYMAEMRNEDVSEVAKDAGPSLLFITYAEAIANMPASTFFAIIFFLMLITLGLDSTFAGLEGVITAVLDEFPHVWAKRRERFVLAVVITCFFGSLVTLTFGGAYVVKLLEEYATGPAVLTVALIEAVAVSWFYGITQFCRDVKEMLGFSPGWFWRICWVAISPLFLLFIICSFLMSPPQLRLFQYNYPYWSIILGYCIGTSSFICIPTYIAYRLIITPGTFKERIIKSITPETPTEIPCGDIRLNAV

[13] = target: T11, 5-HT2C receptor (Homo sapiens, UniProt P28335); test: Eurofins Cerep competition binding assay at 5-HT2C receptor; settings: 10 μM test ligand; [125I](±)DOI; recombinant receptor in HEK-293 cells; read-out: HT2C, percent of control-specific binding
T11 construct: host or cells: HEK-293 cells (membrane preparation)
T11 sequence (P28335 33-458): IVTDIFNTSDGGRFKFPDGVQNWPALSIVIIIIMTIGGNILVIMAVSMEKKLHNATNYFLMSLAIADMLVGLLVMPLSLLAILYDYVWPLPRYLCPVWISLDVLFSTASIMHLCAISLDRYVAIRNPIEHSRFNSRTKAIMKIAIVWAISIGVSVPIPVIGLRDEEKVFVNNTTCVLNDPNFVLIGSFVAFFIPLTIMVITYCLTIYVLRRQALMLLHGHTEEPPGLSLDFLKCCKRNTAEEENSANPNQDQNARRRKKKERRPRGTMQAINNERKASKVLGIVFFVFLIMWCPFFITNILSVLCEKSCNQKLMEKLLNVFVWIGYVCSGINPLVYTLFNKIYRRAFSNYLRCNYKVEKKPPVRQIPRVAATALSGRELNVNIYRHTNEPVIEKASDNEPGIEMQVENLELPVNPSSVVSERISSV

[14] = 10 μM test molecule, [125I](±)DOI, recombinant receptor in HEK-293 cells

Row | Structure (SMILES) | Ki [1] [µM] | inhibition at 10 µM [3, 14] [%] | inhibition at 10 µM [4] [%] | α-2A, percent of control-specific binding [5] [%] | further results
1 | COc1cc2c(cc1CCC(=O)N1CCCC1)OCO2 [F(V)] | 364 | – | – | – | EC50 [2]: 10 µM
2 | N#Cc1ccc2[nH]cc(CCCCN3CCN(c4ccc5oc(C(N)=O)cc5c4)CC3)c2c1 [Vilazodone] | – | 94 | 99 | 65 | –
3 | COc1cc(CC(C)N)c(OC)cc1Br (centres unmarked) [DOB, reference compound] | – | – | – | 66 | HT7, percent of control-specific binding [6]: 65%; HT2B, percent of control-specific binding [7]: 97%; HT1A, percent of control-specific binding [8]: 75%; MT1, percent of control-specific binding ([9]; 10 μM test ligand, [125I]2-iodomelatonin, recombinant receptor in CHO cells): −3%; HT2A, percent of control-specific binding [3, 14]: 100%; D3, percent of control-specific binding [4]: 25%; DAT, percent of control-specific binding ([10]; 10 μM test ligand, [3H]BTCP, recombinant transporter in CHO cells): 3%; NET, percent of control-specific binding ([11]; 10 μM test ligand, [3H]nisoxetine, recombinant transporter in CHO cells): 6%; SERT, percent of control-specific binding ([12]; 10 µM): 53%
4 | CC(Cc1ccc2c(c1)OCO2)CN1CCCC1 (racemic) [A(II)] | 8 | – | – | – | –
5 | Brc1cc2c(cc1CCC1=NCCO1)OCO2 [G(V)] | – | – | – | – | EC50 [2]: 130 µM
6 | NCCc1c[nH]c2ccc(O)cc12 [serotonin] | – | – | 73 | 18 | –
7 | OCCNCCCc1cc2c(cc1Br)OCO2 [C(XIII)] | – | – | – | – | EC50 [2]: 22.9 µM
8 | Cc1ccc(Sc2ccccc2N2CCNCC2)c(C)c1 [vortioxetine] | – | 90 | 88 | 62 | –
9 | CNCC[C@H](Oc1cccc2ccccc12)c1cccs1 [Duloxetine] | – | – | 66 | 54 | inhibition at 10 µM [3]: 95%
10 | CCCOc1c(OC)cc(CCN)cc1OC [proscaline] | – | 91 | 4 | 40 | –
11 | O=c1n(CCCN2CCN(c3cccc(Cl)c3)CC2)nc2ccccn12 [Trazodone] | – | – | 89 | 91 | –
12 | c1cc2c(cc1CCCN1CCCC1)OCO2 [C(III)] | 2.33 | 37 | 22 | 36 | inhibition at 10 µM [6]: 15%; inhibition at 10 µM [13]: 33%; inhibition at 10 µM [7]: 47%; inhibition at 10 µM [8]: 72%; inhibition at 10 µM [9]: 3%; inhibition at 10 µM [10]: 27%; inhibition at 10 µM [11]: 3%; inhibition at 10 µM [12]: 19%
13 | CCN(CC)CCCc1ccc2c(c1)OCO2 [C(I)] | 2.9 | – | – | – | –
14 | CN(C)CCCN1c2ccccc2CCc2ccccc21 [Imipramine] | – | 97 | 92 | 57 | –
15 | COc1ccc2[nH]cc(CCNC(C)=O)c2c1 [Melatonin] | – | – | 2 | −7 | –
16 | CC(NC(C)(C)C)C(=O)c1cccc(Cl)c1 (centres unmarked) [Bupropion] | – | – | 3 | 2 | –
17 | Brc1cc2c(cc1CCCN1CCCC1)OCO2 [C(IV)] | 0.596 | 62 | 61 | 55 | inhibition at 10 µM [6]: 40%; inhibition at 10 µM [13]: 65%; inhibition at 10 µM [7]: 73%; inhibition at 10 µM [8]: 92%; inhibition at 10 µM [9]: 8%; inhibition at 10 µM [10]: 10%; inhibition at 10 µM [11]: 0%; inhibition at 10 µM [12]: 31%
18 | COc1cc(CCN)cc(OC)c1OC [mescaline, 3,4,5 trimethoxyphenethylamine] | – | 79 | -13 | 57 | –
19 | COc1ccc2cccc(CCNC(C)=O)c2c1 [Agomelatine] | – | 61 | 6 | 2 | –
20 | O=C(CCc1cc2c(cc1Br)OCO2)N1CCCC1 [F(IV)] | 84.5 | 0 | 12 | 4 | inhibition at 10 µM [6]: 0%; inhibition at 10 µM [13]: 8%; inhibition at 10 µM [7]: 26%; inhibition at 10 µM [8]: 37%; inhibition at 10 µM [9]: 42%; inhibition at 10 µM [10]: 0%; inhibition at 10 µM [11]: 0%; inhibition at 10 µM [12]: 0%
21 | N[C@@H](Cc1c[nH]c2ccccc12)C(=O)O [tryptophan] | – | -1 | -23 | −4 | –
22 | COc1cc2c(cc1CCCN1CCCC1)OCO2 [C(V)] | 5 | – | – | – | EC50 [2]: 116 µM
